Read-outs that look alike come from different tables or passages of the source. Where a SMILES comes first, the peptide text is derived from it. [ ]: non-standard residue; d: D form. d(β3hP) = O=C(O)C[C@H]1CCCN1; β3hP = O=C(O)C[C@@H]1CCCN1

The target in assay [1] is T1, μ-opioid receptor (Homo sapiens, UniProt P35372). The assay can be described thus: Radioligand competition binding, displacement of [3H]DAMGO. To be noted: for Selectivity Kiδ/Kiμ: ratio of δ and μ binding Ki. A general note: Displacement assays read how much labelled ligand stays bound in the presence of the test substance.
In another assay the target is κ-opioid receptor (Homo sapiens, UniProt P41145). The assay is described as follows: Radioligand competition binding, displacement of [3H]U69,593.
A further assay deals with μ-opioid receptors (GPI). The assay can be described thus: GPI/LMMP in vitro tissue bioassay. It counts as biochemical, guinea pig. As to conditions: read-out: Bioassay GPI (IC50); ± S.E.M.
Assay [2] has as its target T2, δ-opioid receptor (Homo sapiens, UniProt P41143). The assay can be described thus: Radioligand competition binding, displacement of [3H]DPDPE.
The target in a further assay is δ-opioid receptors (MVD) (Mus musculus, UniProt P32300). The assay is described as follows: MVD in vitro tissue bioassay. It counts as biochemical.
For assay [3], the target named is T1, μ-opioid receptor. To be noted: ratio of δ and μ binding Ki; cited from earlier work.
The target in assay [4] is T2, δ-opioid receptor. To be noted: read-out: Receptor affinity Kiδ; cited from earlier work.

With `NC(=O)[C@H](Cc1ccccc1)NC(=O)[C@H](Cc1ccccc1)NC(=O)C[C@@H]1CCCN1C(=O)[C@@H](N)Cc1ccc(O)cc1` [Compound 6a, H–Tyr–(S)-HPro–Phe–Phe–NH2], the Ki at μ-opioid receptor [1] was found to be 0.058 ± 0.005 µM; on κ-opioid receptor it was 0.99 ± 0.012 µM.

One may read the IC50 as the midpoint of a concentration-inhibition curve. For `NC(=O)[C@@H]1CCCN1C(=O)[C@H](Cc1ccccc1)NC(=O)C[C@H]1CCCN1C(=O)[C@@H](N)Cc1ccc(O)cc1` [Compound 7b, H–Tyr–(R)-HPro–Phe–Pro–NH2] (H-Y[d(β3hP)]FP-NH2), the Ki on μ-opioid receptor [1] was 0.03 ± 0.004 µM; at κ-opioid receptor, 10 ± 0.982 µM; on δ-opioid receptor [2] it was above 10 µM. Besides, the “Selectivity Kiδ/Kiμ” value on μ-opioid receptor [1] is given as above 333. For the same compound, at μ-opioid receptors (GPI), the IC50 was 0.017 ± 0.003 µM.

For `NC(=O)[C@@H]1CCCN1C(=O)[C@H](Cc1ccccc1)NC(=O)C[C@@H]1CCCN1C(=O)[C@@H](N)Cc1ccc(O)cc1` [Compound 7a, H–Tyr–(S)-HPro–Phe–Pro–NH2] (H-Y[β3hP]FP-NH2), the Ki at μ-opioid receptor [1] is 6.1 ± 0.553 µM; at κ-opioid receptor, 4.4 ± 0.356 µM; on δ-opioid receptor [2], above 10 µM. Also, the “Bioassay MVD, % at 1 μM” value at δ-opioid receptors (MVD) turned out to be 33.7% at 1 μM. Besides, the IC50 at μ-opioid receptors (GPI) amounted to 1.1 ± 0.115 µM.

With `NC(=O)[C@H](Cc1ccccc1)NC(=O)[C@H](Cc1ccccc1)NC(=O)C[C@H]1CCCN1C(=O)[C@@H](N)Cc1ccc(O)cc1` [Compound 6b, H–Tyr–(R)-HPro–Phe–Phe–NH2], the Ki is 0.293 ± 0.027 µM at μ-opioid receptor [1], 10 ± 1.2 µM at κ-opioid receptor and above 10 µM on δ-opioid receptor [2]. For the same compound, the “Selectivity Kiδ/Kiμ” value at μ-opioid receptor [1] was above 34.

As to Tyr–Pro–Phe–Pro–NH2 [Morphyceptin], the “Selectivity Kiδ/Kiμ” value on μ-opioid receptor [3] was above 74.1.

As for `NC(=O)[C@H](Cc1ccccc1)NC(=O)[C@H](Cc1ccccc1)NS(=O)(=O)C[C@@H]1CCCN1C(=O)[C@@H](N)Cc1ccc(O)cc1` [Compound 6c, H–Tyr–(S)-HPrs–Phe–Phe–NH2], the Ki amounted to 0.1 ± 0.008 µM on μ-opioid receptor [1] and 4.8 ± 0.367 µM on κ-opioid receptor.

Consider “Tyr–Pro–Phe–Pro–NH2 (YPFP) [Morphyceptin]”, for which the Ki with δ-opioid receptor [4] was above 10 µM.

The values are drawn from PMC5689459 (European journal of medicinal chemistry, 2010).
